{"source": "patent US10626092B2", "about": "“Polymorphic forms of 3-[(2-butyl-1-(2-diethylamino-ethyl)-1H-benzoimidazol-5-yl]-N-hydroxy-acrylamide and uses thereof” (MEI PHARMA, INC., priority 2016, dated 2020)", "type_in_all_cases": "physicochemical", "key": {"[1]": {"assay": "Moisture sorption study (DVS analysis)"}, "Thermocycling studies": {"assay": "Thermocycling studies", "conditions": "ethanol, absolute or extra dry; dihydrochloride monohydrate", "experimental": "(§1) The suspensions were cycled between 5° C. and 50° C. followed by aging at 25° C. for 72 hours. […] Upon completion of the incubation time, the solids were collected, dried under ambient conditions and dried under deep vacuum before being analyzed by HT-XRPD. All the measured solids were exposed to accelerated ageing conditions (2 days at 40° C./70% RH) followed by re-analysis by HT-XRPD."}, "[2]": {"assay": "Competitive slurry conversion (thermodynamic stability) of Form 1 and Form 3", "conditions": "one week slurry", "experimental": "Approximately 50 mg of each solid form were solid dosed in a standard HPLC vial followed by solvent addition. The competitive slurry experiments were performed in ethanol/water mixtures and methanol/water mixtures within a water activity range of 0-0.2. Approximately 50 mg of each pracinostat dihydrochloride solid form 2.5 hydrate and monohydrate were solid dosed in 1.8 mL HPLC vials. Aliquots of 100 μL of the different water mixtures were added until about half of the amount of solid was in solution. […] Upon completion of the equilibration time, the solids were separated from the liquids by centrifugation. The solids were dried under ambient conditions (ambient) and dried under vacuum (vacuum) before HT-XRPD analysis. All solid samples were exposed to accelerated gaining conditions (40° C. and 70% RH) for two days (AAC). The water content in the liquid phase was determined Karl Fischer analysis."}, "[3]": {"assay": "Variable temperature XRPD", "conditions": "25° C. to 143° C., cooling to 25° C., reheating to 155° C.", "experimental": "To investigate the phase interconversions upon temperature exposure, a variable temperature XRPD analysis on 3-[2-butyl-1-(2-diethylamino-ethyl)-1H-benzoimidazol-5-yl]-N-hydroxy-acrylamide dihydrochloride 2.5 hydrate was performed. The experiment was run between 25° C. to 130° C. with cooling back to 25° C. at the end. […] After reaching a temperature of 130° C., the material was cooled back to 25° C.\nA variable temperature XRPD experiment with 3-[2-butyl-1-(2-diethylamino-ethyl)-1H-benzoimidazol-5-yl]-N-hydroxy-acrylamide dihydrochloride monohydrate was conducted to investigate the solid form conversion that occurred upon heating. The experiment was run between 25° C. to 143° C. followed by cooling to 25° C., reheating to 155° C. and then cooling again to 25° C. (see FIG. 19).\nFor variable humidity and temperature experiments the ANSYCO HT chamber was used, installed within the D8 Advance system diffractometer (Bruker) designed with Brag-Brentano geometry and equipped with LynxEye solid state detector. The radiation used for collecting the data was CuKα1 (λ=1.54056 Å) monochromatized by germanium crystal. The material was placed on a fixed sample holder that was mounted inside the chamber.\nVT-XRPD: The temperature variation rate was 10° C./min and the equilibration time, prior to starting the data collection at each temperature, was 8 min. The patterns were collected in the range 4-41°2θ, with a step of 0.01573°2θ and measuring time per step of 1 sec. The data collection time, per temperature, was 40 min."}, "[4]": {"assay": "Physical stability under accelerated aging conditions (40° C./70% RH), physical form re-determined by HT-XRPD", "experimental": "Solids were analyzed for their physical stability under accelerated aging conditions (40° C./70% RH) for 48 hours. After the exposure, the physical form was determined again by HT-XRPD analysis. The physico-chemical characterization of the forms was done by TGMS analysis to determine the solvation state of the form and thermal events and by DSC analysis to confirm the thermal events observed in the SDTA signal of the TGA. (See Examples for details.)\nas §1, with “Suspensions of 3-[2-butyl-1-(2-diethylamino-ethyl)-1H-benzoimidazol-5-yl]-N-hydroxy-acrylamide dihydrochloride monohydrate (Form 1) and 2.5 hydrate (Form 3) were prepared in 12 process relevant solvent systems. The” for “The”\nLong-term slurry conversion experiments were carried out by preparing suspensions of 3-[2-butyl-1-(2-diethylamino-ethyl)-1H-benzoimidazol-5-yl]-N-hydroxy-acrylamide dihydrochloride 2.5 hydrate (Form 3) and monohydrate (Form 1) in 12 different solvents and solvent mixtures. Approximately 30 mg of the specific form was dosed in a standard HPLC vial and aliquots of 100 μL of solvent until a suspension was formed. The suspensions were stirred for 2 weeks at room temperature and for 1 week at 50° C. The solids were isolated from the mother liquor and analyzed by HT-XRPD after mild drying under ambient conditions (ambient) and after thorough drying under vacuum (vacuum). All the solids were exposed to accelerated ageing conditions (2 days at 40° C./70% RH) and re-analyzed by HT-XRPD.\nThe competitive slurry experiments were performed in ethanol/water mixtures and methanol/water mixtures within a water activity range of 0-0.2. Approximately 50 mg of each pracinostat dihydrochloride solid form 2.5 hydrate and monohydrate were solid dosed in 1.8 mL HPLC vials. Aliquots of 100 μL of the different water mixtures were added until about half of the amount of solid was in solution. Subsequently, the vials were stirred for one week at 5° C., 21° C. and 50° C. Upon completion of the equilibration time, the solids were separated from the liquids by centrifugation. The solids were dried under ambient conditions (ambient) and dried under vacuum (vacuum) before HT-XRPD analysis. All solid samples were exposed to accelerated gaining conditions (40° C. and 70% RH) for two days (AAC). The water content in the liquid phase was determined Karl Fischer analysis."}, "[5]": {"assay": "Moisture sorption study (DVS analysis)", "experimental": "A moisture sorption study was performed to investigate the physical stability of 3-[2-butyl-1-(2-diethylamino-ethyl)-1H-benzoimidazol-5-yl]-N-hydroxy-acrylamide dihydrochloride 2.5 hydrate upon exposure to several relative humidity profiles. HT-XRPD analyses were performed on the solid material obtained after the DVS analyses. The analytical method is described herein.\nDifferences in hygroscopicity (moisture uptake) of the various forms of a solid material provided a measure of their relative stability at increasing relative humidity. Moisture sorption isotherms of small samples were obtained using a DVS-1 system from Surface Measurement Systems (London, UK); this instrument is suitable for use with as little as a few milligrams of sample, with an accuracy of 0.1 μg. Several humidity profile were applied as described in each individual experiment. Steps consisted of 10% RH. Weight equilibration per step was set with a minimum holding time of 1 hour (10% relative humidity step). At the end of the DVS experiments, the recovered solid material was measured by HT-XRPD.", "remark": "listed apart in the source"}, "[6]": {"conditions": "cycles 45-95-0-45% RH, two cycles"}, "[7]": {"conditions": "second DVS: 45% to 95% RH, held at 95% RH for 10 hours"}}, "note": "Where a name gives a salt, the structure may show the parent alone.", "data": [{"smiles": "CCCCc1nc2cc(/C=C/C(=O)NO)ccc2n1CCN(CC)CC", "note": "[Form 1, 3-[2-butyl-1-(2-diethylamino-ethyl)-1H-benzoimidazol-5-yl]-N-hydroxy-acrylamide dihydrochloride monohydrate]", "values": [{"measurement": "relative humidity level above which conversion to the 2.5 hydrate (Form 3) occurs", "setting": "[1]; DVS 45-95% RH", "result": "above 85%"}, {"measurement": "hygroscopicity", "setting": "[1]; DVS, dihydrochloride monohydrate", "result": "hygroscopic"}, {"measurement": "solid form recovered after DVS", "setting": "[1]; two sorption-desorption cycles 45-95-0-95-0-45% RH, HT-XRPD, dihydrochloride monohydrate", "result": "conversion mainly to the 2.5 hydrate (Form 3)"}, {"measurement": "solid form after thermocycling", "setting": "Thermocycling studies", "result": "transformed into the anhydrous Form 9"}, {"measurement": "water content of the solvent system at which the form is the most stable / obtained form", "setting": "[2]; ethanol/water, 5° C. (below ambient), dihydrochloride monohydrate", "result": "below 2%"}, {"measurement": "water content of the solvent system at which the form is the most stable form", "setting": "[2]; ethanol/water, 50° C. (elevated temperatures), dihydrochloride monohydrate", "result": "2-4%"}, {"measurement": "water content of the solvent system at which the form is the most stable form", "setting": "[2]; methanol/water, 5° C.", "result": "below 6%"}, {"measurement": "solid form conversion upon heating", "setting": "[3]", "result": "No solid form conversions were observed"}, {"measurement": "solid form after accelerated aging conditions", "setting": "[4]; 2 days at 40° C./70% RH", "result": "converted to the 2.5 hydrate Form 3"}, {"measurement": "Stability", "setting": "[4]; physical stability under accelerated aging conditions (40° C./70% RH) for 48 hours, dihydrochloride monohydrate", "result": "Unstable"}, {"measurement": "solid form recovered after DVS", "setting": "[5]; 45-95-0% RH with aging for 5 hours at 0% RH, HT-XRPD", "result": "2.5 hydrate (Form 3) with a small contamination of the hemihydrate (Form 10)"}, {"measurement": "water uptake between 85-95% RH", "setting": "[5]; [6]", "result": 17, "unit": "%"}, {"measurement": "weight loss during desorption between 15-0% RH", "setting": "[5]; [6]", "result": 10, "unit": "%"}, {"measurement": "weight loss during desorption between 95-75% RH", "setting": "[5]; [6]", "result": 7, "unit": "%"}, {"measurement": "water uptake at 75% RH", "setting": "[5]; first cycle of 45-95-0-45% RH", "result": 18, "unit": "%"}, {"measurement": "water uptake between 85-95% RH", "setting": "[5]; [7]", "result": 18, "unit": "%"}, {"measurement": "weight loss after aging at 95% RH for 2 hours", "setting": "[5]; [7]", "result": "about 12%"}]}]}
